Laboratory results reported in patent US20040077639A1, “Methods for the treatment of respiratory diseases and conditions using a selective iNOS inhibitor” (priority 2002, published 2004).
Entries after “also recorded” stand apart in the source; their conditions may differ. Where a name gives a salt, the structure may show the parent alone. Read-outs that look alike come from different tables or passages of the source.

Tests used:
exhaled NO = settings: high doses, literature; cited from earlier work
airway inflammation = settings: murine model of allergic asthma; by down-regulation of chemokine expression; cited from earlier work
[1] = system: nitrite production in human cartilage explants; experiment: Human cartilage explant assay (nitrite production after IL-1β); type: cell-based; settings: inhibition of nitrite production, IL-1β-stimulated explants
Description: Human cartilage Explant Assay
Bone pieces are rinsed twice with Dulbecco's Phosphate Buffered Saline (GibcoBRL) and once with Dulbecco's Modified Eagles Medium (GibcoBRL) and placed into a petri dish with phenol red free Minimum Essential Medium (MEM) (GibcoBRL). Cartilage was cut into small explants of approximately 15-45 mg in weight and one or two explants per well are placed into either 96 or 48 well culture plates with 200-500 μL of culture media per well. The culture media was either a custom modification of Minimum Essential Medium(Eagle) with Earle's salts (GibcoBRL) prepared without L-Arginine, without L-Glutamine and without phenol red or a custom modification of serumless Neuman and Tytell (GibcoBRL) medium prepared without L-arginine, without insulin, without ascorbic acid, without L-glutamine and without phenol red. Both are supplemented before use with 100 μM L-Arginine (Sigma), 2 mM L-glutamine, 1×HL-1 supplement (BioWhittaker), […] ascorbic acid (Sigma) and 150 pg/ml recombinant human IL-1[…] (RD Systems) to induce nitric oxide synthase. Compounds are then added in 10 μL aliquots and the explants incubated at 37° C. with 5% CO2 for 18-24 hours. The day old supernatant is then discarded and replaced with fresh culture media containing recombinant human IL-1β and compound and incubated for another 20-24 hours. […] All samples are done in quadruplicate. Unstimulated controls are cultured in media in the absence of recombinant human IL-1β. IC50 values (Table I) are determined from plotting the percent inhibition of nitrite production at six different concentrations of inhibitor.

[2] = system: LPS-induced increase in plasma nitrite/nitrate levels; experiment: In vivo assay: endotoxin (LPS)-treated rats, plasma nitrite/nitrate; design: species or system rat; settings: oral administration, plasma nitrite/nitrate 5 hours post-treatment
Description: Plasma nitrite/nitrate levels can be determined 5 hours post-treatment.

i-NOS = i-NOS (Homo sapiens, UniProt P35228); experiment: Comparison of i-NOS inhibition with NIL amide and NIL dimethylamide; type: biochemical
[3] = system: exhaled breath nitric oxide (NO); experiment: Clinical study: exhaled breath NO after single oral dose; type: in vivo, human
Description: (§1) A single center study was performed at the National Heart and Lung Institute (NHLI) Clinical Studies Unit in London, UK. The clinical protocol was submitted and accepted by the Ethics Committee of the Royal Brompton Hospital Trust, and the study was carried out according to Good Clinical Practice standards. Each subject provided written informed consent.
(§2) Twenty-four, adult, healthy volunteers and 24 patients with mild asthma participated in this study. All subjects were lifelong non-smokers. Asthma patients (n=24) had mild asthma according to American Thoracic Society Criteria, with medication on an as required basis with inhaled albuterol only. […] All asthmatic patients had baseline exhaled breath NO levels of >15 parts per billion (ppb). Healthy control (n=24) subjects were matched for age and sex, and had no clinically significant disease. Healthy subjects were required to have baseline exhaled NO levels between 4 and 9 ppb.
The study included 2 panels of healthy volunteers and asthmatic patients who received in a double-blind, randomized manner, a single dose of oral compound NN or placebo. The study was carried out in two phases according to the dose of compound NN under investigation. […] The study evaluated the tolerability and pharmacokinetics of orally-administered compound NN and monitored levels of exhaled breath NO.
Measurement of exhaled NO: Exhaled NO was measured using a chemoluminescence analyzer (Logan 2000, Rochester, UK) and methods in accordance with International Guidelines. […] Two successive recordings were taken, and the average value was calculated.
Statistical methods for clinical data: Exhaled NO data, including change from baseline and the percentage change, were tested for normality using the Shapiro-Wilks test. […] The area under the curve (AUC) for the change from baseline and the percentage change, and the differences between active and placebo were calculated. […]

[4] = Clinical study: tolerability, FEV1, blood pressure, heart rate, laboratory parameters; type: in vivo, human
Description: as §1, §2
The study included 2 panels of healthy volunteers and asthmatic patients who received in a double-blind, randomized manner, a single dose of oral compound NN or placebo. The study was carried out in two phases according to the dose of compound NN under investigation. The first panel consisted of patients with mild-to-moderate asthma (n=12) and healthy subjects (n=12) who received single doses of 20 mg of compound NN and placebo, while the second panel of mild-to-moderate asthmatics (n=12) and healthy subjects (n=12) received single doses of 200 mg of compound NN and placebo. No patient or subject participated in both panels of this study. Evaluation of the first panel was completed before moving on to the second panel. The study evaluated the tolerability and pharmacokinetics of orally-administered compound NN and monitored levels of exhaled breath NO.
Forced expiratory volume in 1 sec (FEV1) and heart rate data had no significant deviations from normality using the Shapiro-Wilks test, therefore parametric statistical methods were used, and the significance of the change from baseline was tested using a paired […]. […]

[5] = Rattus norvegicus, read-out: ED50

Sequence of i-NOS (P35228 whole entry): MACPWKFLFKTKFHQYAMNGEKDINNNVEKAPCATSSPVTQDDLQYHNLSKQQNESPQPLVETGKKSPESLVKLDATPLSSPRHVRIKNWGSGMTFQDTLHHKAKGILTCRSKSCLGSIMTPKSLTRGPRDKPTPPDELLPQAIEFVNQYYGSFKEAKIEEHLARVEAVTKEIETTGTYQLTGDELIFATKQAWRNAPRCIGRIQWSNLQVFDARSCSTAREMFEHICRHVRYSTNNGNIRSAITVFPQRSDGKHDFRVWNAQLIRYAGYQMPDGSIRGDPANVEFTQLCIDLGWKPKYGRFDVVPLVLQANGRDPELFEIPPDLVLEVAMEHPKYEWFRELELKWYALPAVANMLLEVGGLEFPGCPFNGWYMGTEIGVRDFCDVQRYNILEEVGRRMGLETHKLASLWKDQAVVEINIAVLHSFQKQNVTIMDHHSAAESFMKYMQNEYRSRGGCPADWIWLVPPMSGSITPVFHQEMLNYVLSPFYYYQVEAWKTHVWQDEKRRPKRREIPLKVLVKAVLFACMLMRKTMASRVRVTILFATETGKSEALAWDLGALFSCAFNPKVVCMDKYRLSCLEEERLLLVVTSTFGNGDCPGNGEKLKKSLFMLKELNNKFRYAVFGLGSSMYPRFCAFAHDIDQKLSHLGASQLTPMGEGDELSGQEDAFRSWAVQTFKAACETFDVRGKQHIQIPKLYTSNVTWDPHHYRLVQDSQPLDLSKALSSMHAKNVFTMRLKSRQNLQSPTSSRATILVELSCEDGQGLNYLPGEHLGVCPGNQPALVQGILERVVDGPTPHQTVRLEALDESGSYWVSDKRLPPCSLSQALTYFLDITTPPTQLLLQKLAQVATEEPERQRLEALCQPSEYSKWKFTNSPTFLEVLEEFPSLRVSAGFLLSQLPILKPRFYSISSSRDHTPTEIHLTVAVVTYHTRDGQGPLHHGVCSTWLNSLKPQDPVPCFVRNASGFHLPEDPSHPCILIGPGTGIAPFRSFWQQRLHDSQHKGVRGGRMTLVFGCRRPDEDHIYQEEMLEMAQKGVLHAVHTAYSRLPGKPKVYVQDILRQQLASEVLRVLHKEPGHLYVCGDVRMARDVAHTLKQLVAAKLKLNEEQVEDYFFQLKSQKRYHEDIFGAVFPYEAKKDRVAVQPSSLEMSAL

| Compound | IC50 ([1]; Homo sapiens) [nM] | ED50 [2, 5] [mg/kg] | further results |
| --- | --- | --- | --- |
| COC(=O)[C@@H](N)CCCNC(=N)N[N+](=O)[O-] [L-NAME] | – | – | inhibition of exhaled NO (exhaled NO): approximately 70%; effect on airway inflammation (airway inflammation): suppressed airway inflammation |
| N=C1CCCC[C@@H](CCCC[C@H](N)C(=O)O)N1 [Example W, (αS,2R)-α-aminohexahydro-7-imino-1 H-azepine-2-hexanoic acid, Trihydrate Hydrochloride] | > 30000 | > 10 | – |
| N=C(N)NN [amino-guanidine] | – | – | inhibition of exhaled NO (exhaled NO): approximately 70% |
| CC(=N)NC/C(F)=C\CC[C@H](N)C(=O)O [Example A, (2S,5E)-2-amino-6-fluoro-7-[(1-iminoethyl)amino]-5-heptenoic acid, dihydrochloride, monohydrate] | 100 | < 0.1 | ED50 ([2]; dihydrochloride, monohydrate): <0.1 mg/kg |
| CC(=N)NCCCC[C@H](N)C(=O)Nc1nnn[nH]1 [Example NN, 2S-amino-6-[(1-iminoethyl)amino]-N-(1H-tetrazol-5-yl) hexanamide, hydrate, dihydrochloride] | – | – | i-NOS inhibitory potency compared with NIL amide or NIL dimethylamide (i-NOS): more potent; change in exhaled NO ([3]; 20 mg and 200 mg single oral doses, healthy volunteers and asthmatics, 72 hour assessment, FIG. 3, hydrate, dihydrochloride): rapid reduction in exhaled NO; also recorded: of rapid onset and dose-related; inhibition of exhaled NO ([3]; 200 mg single oral dose, asthma): 95%; duration of decrease in exhaled breath NO ([3]; single oral dose, healthy volunteers and asthmatics): 3 days; effects on heart rate, blood pressure and FEV1 ([4]; 200 mg oral, FIG. 4): no apparent effects; effect on haematology or blood biochemistry ([4]; single oral dose): no effect; tolerability ([4]; single oral dose, healthy volunteers and asthmatics, FIG. 4): well tolerated |
| CC1CCN=C(N)S1 (stereo not shown) [2-amino 5,6-dihydro 6-methyl 4H-1,3-thiazine] | – | – | effect on airway inflammation (airway inflammation): suppressed airway inflammation |
| N=C1CCCC[C@H](CCCC[C@H](N)C(=O)O)N1 [Example X, (αS,2S)-α-aminohexahydro-7-imino-1H-azepine-2-hexanoic acid, Trihydrate Hydrochloride] | – | – | IC50 [1]: < 10000 nM |
| CC(=N)NC/C(F)=C/CC[C@H](N)C(=O)O [Example D, (2S,5Z)-2-amino-6-fluoro-7-[(1-iminoethyl)amino]-5-heptenoic acid, trihydrochloride, dihydrate] | 2500 | > 10 | – |
| Cl.N=C1CCCC[C@H](CCCC[C@@H](N)C(=O)O)N1.O.O.O [Example Y, (αR,2S)-α-aminohexahydro-7-imino-1H-azepine-2-hexanoic acid, Trihydrate Hydrochloride] | – | < 3 | – |
| CC(=N)NC/C(F)=C\CC[C@H](N)C(=O)Nc1nnn[nH]1 [Example H, (2S,5E)-2-amino-6-fluoro-7-[(1-iminoethyl)amino]-N-(1H-tetrazol-5-yl) 5-heptenamide, Dihydrochloride] | – | < 0.3 | – |
| COC[C@](N)(CSCCNC(C)=N)C(=O)O [Example J, 2-[[[2-[(1-Iminoethyl)amino]ethyl]thio]methyl]-O-methyl-D-serine, Dihydrochloride] | – | – | IC50 [1]: 8200 nM |
| CC(=N)NCC(F)=CCC[C@H](N)C(=O)O (mixture of isomers) [Example B, (2S,5E/Z)-2-amino-6-fluoro-7-[(1-iminoethyl)amino]-5-heptenoic acid, Dihydrochloride] | 200 | – | – |
| N=C1CCCC[C@H](CCCC[C@H](N)C(=O)O)N1 [Example Z, (αS,2S)-α-aminohexahydro-7-imino-1H-azepine-2-hexanoic acid, Trihydrate Hydrochloride] | < 10000 | – | – |
| 2S-amino-6-[(1-iminoethyl)amino]-N-(1H-tetrazol-5-yl) hexanamide, hydrate, dihydrochloride [Example NN] | – | – | selectivity compared with NIL amide or NIL dimethylamide (i-NOS): more selective |
| CC(=NO)NC/C(F)=C\CC[C@H](N)C(=O)O [Example G, (2S,5E)-2-amino-6-fluoro-7-[(1-hydroximinoethyl)amino]-5-heptenoic acid] | – | < 0.1 | melting point: 198 to 200 °C |
| CC(=N)NC/C(F)=C\CC[C@](C)(N)C(=O)O [Example HH, (2S,5E)-2-amino-2-methyl-6-fluoro-7-[(1-iminoethyl)amino]-5-heptenoic acid, Dihydrochloride] | 400 | 0.4 | – |
| CCSC(=N)N [S-ethylisothiourea] | – | – | effect on airway inflammation (airway inflammation): suppressed airway inflammation |
| N=C1CCCC[C@H](CCCC[C@@H](N)C(=O)O)N1 [Example V, (α,2S)-.α-aminohexahydro-7-imino-1H-azepine-2-hexanoic acid, Trihydrate Hydrochloride] | < 10000 | < 3 | – |
| CC(=N)NC/C=C\CC[C@](C)(N)C(=O)O.Cl.Cl [Example LL, (2S,5Z)-2-amino-2-methyl-7-[(1-iminoethyl)amino]-5-heptenoic acid, Dihydrochloride] | 800 | 0.3 | – |
